According to patent US20260138976A1 (Hoffmann-La Roche Inc., priority 2022, published 2026):

Columns and labels:
primary human T-cells = experiment: IL2 secretion measurements (24 h, CD3-stimulated T-cells, PBS counter screen); type: cell-based; conditions: for Emax IL2 (% activation): CD3 condition, normalised to DMSO (neutral) and 20 μM reference compound A1 = 100%; for EC50: Homo sapiens, T-cell, CD3-stimulated primary human T-cells, IL2 secretion, fitted sigmoidal curve, read-out: Tcell IL2 CD3 EC50
Protocol: As readouts for T-cell activation, 1L2 secretion after 24 hours and proliferation after 5 days was measured. Increases in IL2 secretion and proliferation upon compound treatment were assessed as the % of the maximum of reference compound A1. WO 2016/139181 discloses reference compound A1 as example 70. As a counter screen and to make sure that no unwanted TCR-independent activation was triggered, PBS conditions were run for all compounds.
Expanded primary human T-cells were thawed and cultured in RPMI 1640 (Gibco, #61870-010)+5% human serum (HS, Sigma, #H3667)+1 mM Sodium Pyruvate (Gibco, #11360-039)+50 μM 2-mercaptoethanol (Gibco, #31350-010) and 1× Pen-Strep (Life Technologies, #15140122) medium at density of 2 Mio/ml for 3 hours in 5% CO2, 37° C. and 95% humidity. For coating of plates, […] or PBS++ with CD3 antibody (concentration depending on donor and determined by CD3 titrations) was added 100 μl/well to Poly-D Lysine coated 96-well plates. Plates were sealed and incubated at room temperature for 3 hours on a table-top rocking platform. After incubation, plates were washed once with PBS−− and filled with 40 μl/well culture medium only. Compounds were then added (see next section) to medium only plates. After 3 hours of culturing the T-cells, cells were filtered through a cell strainer (Miltenyi Biotech, #130-041-407), counted again and concentration was adjusted to 1.25 Mio/ml.
Cells were then seeded 80 μl/well to the 40 μl/well including dispensed compounds according to plate layout. By adding cells, compounds were further diluted 1:3, and resulting in 100 k cells/120 μl/well. After 24 hours 40 μl of supernatant was collected carefully from the top while not disturbing the cells and transferred into a round bottom 96 well plate. Collected and frozen supernatant was used for detection of IL2 using the IL-2 Human ProQuantum Immunoassay Kit (Invitrogen) or using the Human IL-2 ELISA Kit (Thermo Fisher).
Compounds were added in a 5 or 6 pt dose response with the Tecan D300e Digital Dispenser, all conditions 3 times more concentrated than the end-concentration, since cells are added afterwards (80 μl cells to 40 μl prepared medium with treatment). The DR was starting at 20 μM or 10 μM final top concentration and a dilution factor of 3.333. The positive control was the reference compound A1 that was added in a dose response as well, additionally to 3 wells of only 20 μM representing the positive stimulator control. All wells were normalized with DMSO to a final concentration of 0.6% (0.2% end-concentration).
The immunoassay is done following the manufacturer's manual (Invitrogen, #A35603). Additional information: For the immunoassay, MicroAmp™ EnduraPlate™ Optical 384-Well plates are used. Frozen supernatant is thawed and centrifuged for 5 minutes at 1000×g, both steps at 4° C. After centrifugation, required sample amount is taken from the top, and in a separate LightCycler V-bottom plate (working plate) diluted with assay dilution buffer, dilution factor depending on the PBS or CD3 condition but at least 1:3. IL-2 standard and blanks are prepared in the same V-bottom plate, standard with a range of 0.0128-5000 pg/ml (extended version). After preparation, 5 μl of sample dilutions or standard/blanks are transferred to the optical 384-well plate (assay plate) and the 10 μl reaction protocol is being followed. For measurement, the QuantStudio 12K Flex system is used. Raw data is extracted and IL-2 concentrations are calculated with the Thermo Fisher online app (apps.thermofisher.com/apps/proquantum).
ELISA is done following the manufacturer's manual (Thermo Fisher Scientific, #88-7025-88). Additional information: For the ELISA Nunc MaxiSorp 96 well plates are used. Frozen supernatant is thawed and centrifuged for 5 minutes at 1000×g, both steps at 4° C. […]

[1] = target: T1, DGKα (hDGKalpha(1-735)-N-His) (Homo sapiens, UniProt P23743); experiment: In vitro DGK inhibition assay, DGKalpha ADP Glo (in house); type: biochemical; conditions: 4 nM DGKα, 25 μM ATP, 125 uM DLG in liposomes, 1 hour reaction
T1 construct: hDGKalpha(1-735)-N-His; His (N); made in house; host or cells: Sf21 insect cells (baculovirus)
T1 sequence (P23743 whole entry): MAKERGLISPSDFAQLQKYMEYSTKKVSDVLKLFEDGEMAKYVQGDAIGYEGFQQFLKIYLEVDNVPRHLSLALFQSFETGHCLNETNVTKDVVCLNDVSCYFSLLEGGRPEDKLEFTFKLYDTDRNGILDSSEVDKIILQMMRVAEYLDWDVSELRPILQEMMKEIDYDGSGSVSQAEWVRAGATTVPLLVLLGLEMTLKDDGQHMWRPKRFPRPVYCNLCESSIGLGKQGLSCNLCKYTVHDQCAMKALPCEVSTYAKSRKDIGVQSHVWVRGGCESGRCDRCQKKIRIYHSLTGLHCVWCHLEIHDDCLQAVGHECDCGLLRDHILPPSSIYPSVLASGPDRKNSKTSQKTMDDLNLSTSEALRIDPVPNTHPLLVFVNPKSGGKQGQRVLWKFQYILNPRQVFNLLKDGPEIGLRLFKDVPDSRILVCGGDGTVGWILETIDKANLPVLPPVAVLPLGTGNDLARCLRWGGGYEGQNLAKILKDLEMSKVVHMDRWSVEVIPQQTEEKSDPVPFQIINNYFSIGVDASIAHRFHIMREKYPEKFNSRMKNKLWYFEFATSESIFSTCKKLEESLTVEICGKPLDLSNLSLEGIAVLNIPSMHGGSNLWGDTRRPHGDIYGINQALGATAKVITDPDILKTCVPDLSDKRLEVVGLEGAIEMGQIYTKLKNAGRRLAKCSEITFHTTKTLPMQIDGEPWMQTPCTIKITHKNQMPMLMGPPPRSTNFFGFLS
Protocol: DGKα and ζ kinases use ATP to phosphorylate the substrate 1,2-dilauroyl-sn-glycerol (DLG, incorporated in the liposomes). ATP is converted to ADP as a result of this enzymatic reaction. After the kinase reaction, an ATP-depletion reagent is added to terminate the kinase reaction and deplete any remaining ATP, leaving only ADP. Second, a detection reagent is added to simultaneously convert ADP to ATP and allow the newly synthesized ATP to be converted to light using a coupled luciferase/luciferin reaction.
Full length DGKα and ζ were expressed in Sf21 insect cells by infecting the cells with the baculovirus stock at MOI of 2. Purification of both enzymes was performed as previously described by Takahashi et al., PeerJ, 2018 (Takahashi, D.; Sakane, F. Expression and purification of human diacylglycerol 5 kinase alpha from baculovirus-infected insect cells for structural studies. PeerJ2018, 6, No. e5449).
A concentrated liposome solution was prepared in assay buffer without DTT and BSA: 2 mM of DLG in 21 mM of total liposome (2 mM DLG/8 mM PS/11 mM PC). The reaction mixtures contain the assay buffer with a final DLG concentration of 125 uM ATP concentrations of 25 μM (for DGKA assay) or 50 μM (for DGKZ assay). The reactions were started by addition of DGK α and ζ kinases at 4 nM and 2 nM final concentrations, respectively. After 1 hour reaction, the amount of ADP formed was detected with the ADP-Glo kinase assay (Promega) according to the manufacturer instructions. Compounds were added in 11-points dose response, starting at […], 1:3 dilutions, with a final DMSO concentration of 2%. The multidrop combi was used as a liquid handler and luminescence was read with 0.5 s by the envision reader (PE).

[2] = target: T2, DGKζ (hDGKzeta(1-928)-N-His) (Homo sapiens, UniProt Q13574); experiment: In vitro DGK inhibition assay, DGKzeta ADP Glo (in house); type: biochemical; conditions: 2 nM DGKζ, 50 μM ATP, 125 uM DLG in liposomes, 1 hour reaction
T2 construct: hDGKzeta(1-928)-N-His; His (N); made in house; host or cells: Sf21 insect cells (baculovirus)
T2 sequence (Q13574 whole entry): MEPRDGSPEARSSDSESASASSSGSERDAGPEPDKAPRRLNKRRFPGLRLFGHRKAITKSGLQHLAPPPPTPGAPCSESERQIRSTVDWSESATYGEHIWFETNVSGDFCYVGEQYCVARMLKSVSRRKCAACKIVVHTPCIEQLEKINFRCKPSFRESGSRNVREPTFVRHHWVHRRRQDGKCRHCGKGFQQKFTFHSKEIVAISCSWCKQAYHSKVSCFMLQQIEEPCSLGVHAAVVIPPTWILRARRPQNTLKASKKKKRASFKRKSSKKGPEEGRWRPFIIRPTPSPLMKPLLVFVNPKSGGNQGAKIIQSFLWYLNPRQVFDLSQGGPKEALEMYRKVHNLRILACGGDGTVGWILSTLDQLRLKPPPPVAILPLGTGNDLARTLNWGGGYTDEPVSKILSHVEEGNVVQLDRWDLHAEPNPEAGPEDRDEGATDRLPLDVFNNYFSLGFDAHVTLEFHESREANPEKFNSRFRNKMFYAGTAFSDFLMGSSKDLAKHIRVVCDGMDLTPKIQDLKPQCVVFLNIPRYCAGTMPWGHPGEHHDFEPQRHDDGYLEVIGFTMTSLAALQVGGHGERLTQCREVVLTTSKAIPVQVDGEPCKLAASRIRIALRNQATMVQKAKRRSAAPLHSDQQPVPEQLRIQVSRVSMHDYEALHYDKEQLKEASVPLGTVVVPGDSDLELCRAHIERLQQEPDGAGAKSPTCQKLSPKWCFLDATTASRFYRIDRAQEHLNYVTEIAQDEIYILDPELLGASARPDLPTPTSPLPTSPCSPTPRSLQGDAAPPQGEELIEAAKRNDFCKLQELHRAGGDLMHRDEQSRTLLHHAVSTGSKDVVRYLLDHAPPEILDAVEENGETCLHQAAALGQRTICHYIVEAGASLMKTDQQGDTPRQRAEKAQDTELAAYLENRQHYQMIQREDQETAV
Procedure, shortened: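 Full-length His-tagged human DGKα (4 nM) or DGKζ (2 nM), expressed in Sf21 cells, phosphorylated 125 µM DLG in PS/PC liposomes with ATP at 25 µM (α) or 50 µM (ζ) for 1 h. ADP was measured by ADP-Glo luminescence. Compounds were tested as 11-point 1:3 series in 2% DMSO.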

SMILES | IC50 [1] | IC50 [2] | Emax IL2 (% activation) (primary human T-cells) | EC50 (primary human T-cells)
CC1(Nc2nnc(-c3cc4c(cc3F)S(=O)(=O)C[C@H](N)C(=O)N4Cc3ccc(-c4noc(C(F)(F)F)n4)cc3)o2)CC(F)(F)C1 [Example 3, (3R)-3-amino-7-[5-[(3,3-difluoro-1-methyl-cyclobutyl)amino]-1,3,4-oxadiazol-2-yl]-8-fluoro-1,1-dioxo-5-[[4-[5-(trifluoromethyl)-1,2,4-oxadiazol-3-yl]phenyl]methyl]-2,3-dihydro-1λ^6,5-benzothiazepin-4-one] | 10300 nM | 1280 nM | 594 % activation | 213 nM
N[C@H]1CS(=O)(=O)c2cc(F)c(-c3nnc(N4CCOC5(CC5)C4)o3)cc2N(Cc2ccc(-c3noc(C(F)(F)F)n3)cc2)C1=O [Example 4, (3R)-3-amino-8-fluoro-7-[5-(4-oxa-7-azaspiro[2.5]octan-7-yl)-1,3,4-oxadiazol-2-yl]-1,1-dioxo-5-[[4-[5-(trifluoromethyl)-1,2,4-oxadiazol-3-yl]phenyl]methyl]-2,3-dihydro-1λ^6,5-benzothiazepin-4-one] | 3410 nM | 127 nM | 220 % activation | 207 nM
N[C@H]1CS(=O)(=O)c2cc(F)c(-c3nnc(N4CCC(F)(F)CC4)o3)cc2N(Cc2ccc(-c3noc(C(F)(F)F)n3)cc2)C1=O [Example 5, (3R)-3-amino-7-[5-(4,4-difluoro-1-piperidyl)-1,3,4-oxadiazol-2-yl]-8-fluoro-1,1-dioxo-5-[[4-[5-(trifluoromethyl)-1,2,4-oxadiazol-3-yl]phenyl]methyl]-2,3-dihydro-1λ^6,5-benzothiazepin-4-one] | 635 nM | 68 nM | 537 % activation | 323 nM
COc1ccc(-c2ccc(CN3C(=O)[C@@H](N)CS(=O)(=O)c4cc(F)c(-c5noc(C6(N)COC6)n5)cc43)cc2)cc1 [Example 8, (3R)-3-amino-7-[5-(3-aminooxetan-3-yl)-1,2,4-oxadiazol-3-yl]-8-fluoro-5-[[4-(4-methoxyphenyl)phenyl]methyl]-1,1-dioxo-2,3-dihydro-1λ^6,5-benzothiazepin-4-one] | 7030 nM | 137 nM | 96 % activation | 5600 nM
N[C@H]1CS(=O)(=O)c2cc(F)c(-c3noc(C4(N)COC4)n3)cc2N(Cc2ccc(-c3noc(C(F)(F)F)n3)cc2)C1=O [Example 9, (3R)-3-amino-7-[5-(3-aminooxetan-3-yl)-1,2,4-oxadiazol-3-yl]-8-fluoro-1,1-dioxo-5-[[4-[5-(trifluoromethyl)-1,2,4-oxadiazol-3-yl]phenyl]methyl]-2,3-dihydro-1λ^6,5-benzothiazepin-4-one] | 3290 nM | 468 nM | 558 % activation | 1100 nM
N[C@H]1CS(=O)(=O)c2cc(F)c(-c3noc(C4(N)COC4)n3)cc2N(Cc2ccc(-c3ccc(C(F)(F)F)cn3)cc2)C1=O [Example 10, (3R)-3-amino-7-[5-(3-aminooxetan-3-yl)-1,2,4-oxadiazol-3-yl]-8-fluoro-1,1-dioxo-5-[[4-[5-(trifluoromethyl)-2-pyridyl]phenyl]methyl]-2,3-dihydro-1λ^6,5-benzothiazepin-4-one] | 5160 nM | 282 nM | 123 % activation | 9430 nM

The next lines start with results.

IC50 [1] | IC50 [2] | SMILES | Emax IL2 (% activation) (primary human T-cells) | EC50 (primary human T-cells)
> 6250 nM | 690 nM | N[C@H]1CS(=O)(=O)c2cc(F)c(-c3noc(N4CCOC5(CC5)C4)n3)cc2N(Cc2ccc(-c3ccc(C(F)(F)F)cc3)nc2)C1=O [Example 11, (3R)-3-amino-8-fluoro-7-[5-(4-oxa-7-azaspiro[2.5]octan-7-yl)-1,2,4-oxadiazol-3-yl]-1,1-dioxo-5-[[6-[4-(trifluoromethyl)phenyl]-3-pyridyl]methyl]-2,3-dihydro-1λ^6,5-benzothiazepin-4-one] | 64 % activation | 7700 nM
3040 nM | 169 nM | N[C@H]1CS(=O)(=O)c2cc(F)c(-c3noc(N4CCOC(F)(F)C4)n3)cc2N(Cc2ccc(-c3noc(C(F)(F)F)n3)nc2)C1=O [Example 12, (3R)-3-amino-7-[5-(2,2-difluoromorpholin-4-yl)-1,2,4-oxadiazol-3-yl]-8-fluoro-1,1-dioxo-5-[[6-[5-(trifluoromethyl)-1,2,4-oxadiazol-3-yl]-3-pyridyl]methyl]-2,3-dihydro-1λ^6,5-benzothiazepin-4-one] | 167 % activation | 3050 nM
> 62500 nM | 769 nM | N[C@H]1CS(=O)(=O)c2cc(F)c(-c3noc(N4CCOC(F)(F)C4)n3)cc2N(Cc2ccc(-c3ccc(C(F)(F)F)cc3)nc2)C1=O [Example 13, (3R)-3-amino-7-[5-(2,2-difluoromorpholin-4-yl)-1,2,4-oxadiazol-3-yl]-8-fluoro-1,1-dioxo-5-[[6-[4-(trifluoromethyl)phenyl]-3-pyridyl]methyl]-2,3-dihydro-1λ^6,5-benzothiazepin-4-one] | 26 % activation | > 10000 nM
36900 nM | 144 nM | N[C@H]1CS(=O)(=O)c2cc(F)c(-c3noc(N4CCOC5(CC5)C4)n3)cc2N(Cc2ccc(-c3noc(C(F)(F)F)n3)nc2)C1=O [Example 14, (3R)-3-amino-8-fluoro-7-[5-(4-oxa-7-azaspiro[2.5]octan-7-yl)-1,2,4-oxadiazol-3-yl]-1,1-dioxo-5-[[6-[5-(trifluoromethyl)-1,2,4-oxadiazol-3-yl]-3-pyridyl]methyl]-2,3-dihydro-1λ^6,5-benzothiazepin-4-one] | 93 % activation | 3990 nM
